Experiment: Antioxidant activity assessed as hydroxyl radical scavenging activity
Type: functional

Compound	IC50 [µM]
O=c1c(O)c(-c2ccc(O)c(O)c2)oc2cc(O)cc(O)c12 [QUERCETIN]	110
C=C1C[C@@]23CC[C@H]4[C@@](C)(CCC[C@@]4(C)C(=O)O[C@@H]4O[C@H](CO)[C@@H](O)[C@H](O)[C@H]4O)[C@@H]2CC[C@]1(O[C@@H]1O[C@H](CO)[C@@H](O)[C@H](O)[C@H]1O[C@@H]1O[C@H](CO)[C@@H](O)[C@H](O)[C@H]1O)C3 [STEVIOSIDE]	1500
